Source: US11584737B2, “Heterocyclic compound” (TAKEDA PHARMACEUTICAL COMPANY LIMITED, priority 2018, dated 2023)

Assays:
A2780 cells = assay: In vitro proliferation suppression test (CellTiter-Glo); type: cell-based, human; conditions: Homo sapiens, 72 h, A2780 cell proliferation inhibitory rate at 1 μM test compound, three days
Method: Experimental Example 4: In Vitro Proliferation Suppression Test
The proliferation suppressive activity of compound in A2780 cells was evaluated by the following method.
A2780 cells were seeded in a 384-well white plate at a cell density of 1,000 cells/40 μL/well or a 96-well white plate at a cell density of 1,000 cells/90 μL/well using an assay medium (RPMI1640 medium containing 10% fetal bovine serum (FUJIFILM Wako Pure Chemical Corporation)) and incubated at 37° C. in 5% CO2.
The next day, a test compound dissolved in dimethyl sulfoxide (DMSO) was diluted with an assay medium, the obtained compound solution was added by 40 μL/well or 10 μL/well to each well of the plate containing A2780 cells and the mixture was incubated (test compound addition group). In addition, a similar reaction was performed without adding the test compound (test compound non-addition group).
Three days later, 80 μL or 100 μL of CellTiter-Glo reagent (Promega) was added, and the mixture was stirred for 10 min. Thereafter, the luminescence of each well was measured by ARVO-MX multilabel counter (Perkin Elmer Inc.).
The proliferation inhibitory rate (%) of each test compound against A2780 cells was calculated by the following calculation formula. Proliferation inhibitory rate (%)=(1−luminescence of test compound addition group÷luminescence of test compound non-addition group)×100
The A2780 cell proliferation inhibitory rate (%) of 1 μM test compound is shown below.

CDK12/CycK enzyme = CDK12/CycK enzyme (Homo sapiens, UniProt Q9NYV4); assay: Measurement of CDK12/CycK inhibitory activity (ULight-4E-BP1 peptide phosphorylation, LANCE); type: biochemical; conditions: inhibitory rate against CDK12/CycK at 1 μM test compound, ATP 10 μM or 500 μM
CDK12/CycK enzyme, sequence (Q9NYV4 whole entry, species assumed): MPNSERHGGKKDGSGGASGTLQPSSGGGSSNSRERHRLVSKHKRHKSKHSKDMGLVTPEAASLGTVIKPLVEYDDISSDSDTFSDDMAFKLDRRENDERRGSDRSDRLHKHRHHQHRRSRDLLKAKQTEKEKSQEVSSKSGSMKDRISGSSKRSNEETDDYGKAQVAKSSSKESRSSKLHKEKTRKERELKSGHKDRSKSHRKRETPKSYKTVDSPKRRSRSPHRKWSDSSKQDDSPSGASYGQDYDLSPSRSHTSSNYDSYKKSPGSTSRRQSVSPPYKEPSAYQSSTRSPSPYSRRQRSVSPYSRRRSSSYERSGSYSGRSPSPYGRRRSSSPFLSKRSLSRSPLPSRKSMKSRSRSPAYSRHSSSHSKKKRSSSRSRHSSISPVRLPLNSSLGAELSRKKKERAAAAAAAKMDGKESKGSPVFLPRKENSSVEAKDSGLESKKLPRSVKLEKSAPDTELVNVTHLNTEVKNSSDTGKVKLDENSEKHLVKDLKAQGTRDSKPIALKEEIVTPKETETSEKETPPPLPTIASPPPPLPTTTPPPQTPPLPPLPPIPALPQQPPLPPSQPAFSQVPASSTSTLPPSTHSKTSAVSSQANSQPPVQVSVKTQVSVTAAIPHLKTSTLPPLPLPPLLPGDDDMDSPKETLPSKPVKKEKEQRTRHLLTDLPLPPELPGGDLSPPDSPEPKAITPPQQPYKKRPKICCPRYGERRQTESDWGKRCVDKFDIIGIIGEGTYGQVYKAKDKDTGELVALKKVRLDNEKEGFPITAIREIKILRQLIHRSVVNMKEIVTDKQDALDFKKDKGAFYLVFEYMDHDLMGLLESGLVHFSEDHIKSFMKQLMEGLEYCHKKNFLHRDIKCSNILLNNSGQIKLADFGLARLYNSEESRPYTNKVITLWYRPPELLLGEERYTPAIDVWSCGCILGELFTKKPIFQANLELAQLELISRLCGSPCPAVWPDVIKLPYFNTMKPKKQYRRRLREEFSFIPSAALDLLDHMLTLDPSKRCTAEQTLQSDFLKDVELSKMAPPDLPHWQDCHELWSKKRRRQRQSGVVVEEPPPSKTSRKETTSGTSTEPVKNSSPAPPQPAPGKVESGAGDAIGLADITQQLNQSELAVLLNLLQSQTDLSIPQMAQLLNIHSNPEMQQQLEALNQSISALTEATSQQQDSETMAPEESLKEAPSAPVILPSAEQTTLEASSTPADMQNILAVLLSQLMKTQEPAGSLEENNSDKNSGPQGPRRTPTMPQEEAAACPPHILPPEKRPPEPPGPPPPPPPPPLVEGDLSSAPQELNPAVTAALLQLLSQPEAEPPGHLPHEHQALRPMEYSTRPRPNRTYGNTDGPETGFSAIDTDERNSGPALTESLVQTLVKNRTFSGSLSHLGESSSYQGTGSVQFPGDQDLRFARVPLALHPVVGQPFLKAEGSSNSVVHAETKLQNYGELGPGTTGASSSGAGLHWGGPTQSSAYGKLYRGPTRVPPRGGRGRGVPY
CDK12/CycK enzyme, sequence (O75909 whole entry partner, species assumed): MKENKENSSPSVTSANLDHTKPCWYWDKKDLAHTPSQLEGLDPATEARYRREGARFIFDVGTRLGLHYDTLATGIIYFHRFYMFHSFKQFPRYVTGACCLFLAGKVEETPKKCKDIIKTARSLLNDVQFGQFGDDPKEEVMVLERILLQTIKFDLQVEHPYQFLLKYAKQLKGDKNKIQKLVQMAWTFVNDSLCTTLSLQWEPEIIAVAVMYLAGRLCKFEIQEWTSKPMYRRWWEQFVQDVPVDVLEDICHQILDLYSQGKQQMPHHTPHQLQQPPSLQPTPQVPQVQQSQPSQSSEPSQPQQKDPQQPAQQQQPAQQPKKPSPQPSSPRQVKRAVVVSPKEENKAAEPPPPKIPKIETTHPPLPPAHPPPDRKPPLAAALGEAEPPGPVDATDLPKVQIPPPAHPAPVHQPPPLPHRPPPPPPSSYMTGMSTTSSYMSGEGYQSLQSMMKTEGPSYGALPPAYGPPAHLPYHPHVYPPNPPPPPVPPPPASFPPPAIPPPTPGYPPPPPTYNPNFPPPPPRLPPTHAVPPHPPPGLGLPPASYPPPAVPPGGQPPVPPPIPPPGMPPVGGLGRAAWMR
Method: Experimental Example 2: Measurement of CDK12/CycK Inhibitory Activity
A test compound dissolved in DMSO was added to a reaction solution (50 mM HEPES (pH 7.5), 10 mM MgCl2, 1 mM DTT, 0.01% Tween 20, 0.01% BSA) containing CDK12/CycK enzyme and ULight-labeled eIF4E-binding protein 1 (4E-BP1) (Thr37/Thr46) peptide (PerkinElmer), and the mixture was reacted at room temperature for 60 min. […] was added to give an ATP solution with a final concentration of 10 μM or 500 μM to start the enzyme reaction, and the mixture was reacted at room temperature for 60 min. A LANCE Detection buffer (PerkinElmer) containing europium-labeled anti-phosphorylation 4E-BP1 (Thr37/Thr46) antibody (PerkinElmer) and EDTA (final concentration 10 mM) was added to discontinue the reaction. After standing for 60 min, time decomposition fluorescence value (excitation 320 nm, emission 615 nm, 665 nm) was measured by Envision (PerkinElmer). The inhibitory rate (%) of the test compound against CDK12/CyclinK was calculated by the following formula. Inhibitory rate (%)=(1−(count of test compound−blank)÷(control−blank))×100
The count of the CDK12 enzyme reaction mixture under compound non-addition conditions is indicated as control, and the count under compound non-addition and CDK12/CycK enzyme non-addition conditions is indicated as blank.
The results measured by the above-mentioned method (inhibitory rate (%) of the signal value at 1 μM test compound relative to control is shown below.

CDK12/CycK complex = CDK12/CycK complex (Homo sapiens, UniProt Q9NYV4); assay: Measurement of CDK12 inhibitory activity by binding assay (TR-FRET, 66 nM BODIPY-FL-labeled AT-7519); conditions: inhibitory rate against CDK12 at 1 μM test compound, 66 nM BODIPY-FL-labeled AT-7519, 2 nM CDK12/CycK
CDK12/CycK complex, sequence (Q9NYV4 whole entry, species assumed): as the sequence (Q9NYV4 whole entry, species assumed) above
CDK12/CycK complex, sequence (O75909 whole entry partner, species assumed): as the sequence (O75909 whole entry partner, species assumed) above
Method: Experimental Example 1: CDK12 Binding Assay
(3) Measurement of CDK12 Inhibitory Activity by Binding Assay
His-tagged CDK12/CycK complex was added to a binding assay buffer supplemented with BODIPY-FL labeled AT-7519, terbium-labeled streptavidin and biotin-labeled anti-histidine antibody, and the mixture was stood for not less than 60 min at room temperature. This solution was added to an assay plate containing a test compound dispensed therein, and the mixture was left standing for 120 min at room temperature. The final concentration of CDK12/CycK complex, BODIPY-FL-labeled AT-7519, terbium-labeled streptavidin and biotin-labeled anti-histidine antibody was set to 2 nM, 66 nM, 0.2 nM, and 0.4 nM, respectively. The fluorescence intensity derived from terbium and BODIPY-FL was measured using Envision. The signal value of each well was determined using the TR-FRET ratio calculated by the following formula. TR-FRET ratio=(fluorescence value of BODIPY-FL)÷(fluorescence value of terbium)
The inhibitory rate (%) of the test compound against CDK12 was calculated by the following formula. Inhibitory rate (%)=(1−(TR-FRET ratio of test compound−blank)÷(control−blank))×100
The TR-FRET ratio of the CDK12 enzyme reaction mixture under compound non-addition conditions is indicated as control, and the TR-FRET ratio under 3 μM AT-7519 addition conditions is indicated as blank.
The inhibitory rate of the test compound against CDK12 at […] is shown below.

[1] = tested on: A2780 intracellular CTD pSer2; assay: CTD pSer2 measurement using human ovarian cancer cell A2780 and In-Cell Western method; type: cell-based; conditions: inhibitory rate against A2780 intracellular CTD pSer2 at 1 μM test compound, 4 hr
Method: Experimental Example 3: CTD pSer2 Measurement Using Human Ovarian Cancer Cell A2780 and In-Cell Western Method
A2780 cells (ATCC) were seeded in a 96 well plate at 1.8×10^4 cells/well, and the cells were cultured overnight in a cell culture medium RPMI1640 (FUJIFILM Wako Pure Chemical Corporation) containing 10% FBS (fetal bovine serum) and 1% penicillin/streptomycin. A test compound dissolved in a cell medium was added, and the mixture was stood for 4 hr in a CO2 incubator (37° C.). The cells were fixed with ALTFiX (Falma) for 30 min, and washed 3 times with a washing buffer (20 mM Tris-HCl (pH 7.5), 500 mM NaCl, 0.1% Tween20). 0.1% Triton-X-100 diluted with PBS(−) was added and the mixture was incubated at room temperature for 15 min. Thereafter, a blocking buffer (LI-COR) was added, and the mixture was incubated at room temperature for 1 hr. An anti-CTD pS2 antibody (Abcam) suspended in an antibody diluent (blocking buffer: PBS(−)-diluted 0.1% Tween20=1:1) was added, and the mixture was incubated at room temperature for 1 hr. The mixture was […] with a washing buffer, IRDye800CW-labeled anti-goat antibody (LI-COR) was added, and the mixture was incubated at room temperature for 1 hr. The mixture was washed 3 times with a washing buffer, and the fluorescence wavelength at 800 nm was measured by Aerius (LI-COR).
The inhibitory rate (%) of the test compound against A2780 intracellular CTD pSer2 was calculated by the following formula. Inhibitory rate (%)=(1−(count of test compound−blank)÷(control−blank))×100
The count of the A2780 cell under compound non-addition conditions is indicated as control, and the count under compound non-addition and primary antibody non-addition conditions is indicated as blank.
The results measured by the above-mentioned method (inhibitory rate of the signal value at 1 μM test compound relative to control) are shown below.

COc1ncc(-c2ccc(N(C(=O)NCc3ccccc3F)[C@H]3CC[C@H](Nc4ncc(C#N)c(NC5COC5)n4)CC3)nc2)cn1 [Example 582, 1-(trans-4-((5-cyano-4-(oxetan-3-ylamino)pyrimidin-2-yl)amino)cyclohexyl)-3-(2-fluorobenzyl)-1-(5-(2-methoxypyrimidin-5-yl)pyridin-2-yl)urea]
inhibition at 1 µM (A2780 cells): 97%
inhibition at 1 µM (CDK12/CycK enzyme): 110%
inhibition at 1 µM (CDK12/CycK complex): 91%
inhibition at 1 µM [1]: 72%

COc1ncc(-c2cnc(N(C(=O)NCc3ccccc3)[C@H]3CC[C@H](Nc4ncc(C#N)c(N5CCCC(O)CC5)n4)CC3)nc2)cn1 (stereo partly drawn) [Example 596, 3-benzyl-1-(trans-4-((5-cyano-4-(4-hydroxyazepan-1-yl)pyrimidin-2-yl)amino)cyclohexyl)-1-(2′-methoxy-5,5′-bipyrimidin-2-yl)urea]
inhibition at 1 µM (A2780 cells): 99%
inhibition at 1 µM (CDK12/CycK enzyme): 100%
inhibition at 1 µM (CDK12/CycK complex): 103%
inhibition at 1 µM [1]: 71%

Cc1cc(-c2nc(N[C@H]3CC[C@H](N(C(=O)NCc4ccccc4)c4ccc(-c5cnn(C)c5)cn4)CC3)ncc2C#N)[nH]n1 [Example 469, 3-benzyl-1-(trans-4-((5-cyano-4-(3-methyl-1H-pyrazol-5-yl)pyrimidin-2-yl)amino)cyclohexyl)-1-(5-(1-methyl-1H-pyrazol-4-yl)pyridin-2-yl) urea]
inhibition at 1 µM (A2780 cells): 97%
inhibition at 1 µM (CDK12/CycK enzyme): 103%
inhibition at 1 µM (CDK12/CycK complex): 94%
inhibition at 1 µM [1]: 62%

Cn1cc(-c2ccc(N(C(=O)NCc3ccccc3)[C@H]3CC[C@H](Nc4ncc(C(F)(F)F)c(N5CCC6(COC6)C5)n4)CC3)nc2)cn1 [Example 566, 3-benzyl-1-(5-(1-methyl-1H-pyrazol-4-yl)pyridin-2-yl)-1-(trans-4-((4-(2-oxa-6-azaspiro[3.4]octa-6-yl)-5-(trifluoromethyl)pyrimidin-2-yl)amino)cyclohexyl)urea]
inhibition at 1 µM (A2780 cells): 98%
inhibition at 1 µM (CDK12/CycK enzyme): 100%
inhibition at 1 µM (CDK12/CycK complex): 102%
inhibition at 1 µM [1]: 72%

Cn1cc(-c2ccc(N(C(=O)NCc3ccccc3)[C@H]3CC[C@H](Nc4ncc(C#N)c(OC5COC5)n4)CC3)nc2)cn1 [Example 485, 3-benzyl-1-(trans-4-((5-cyano-4-(oxetan-3-yloxy)pyrimidin-2-yl)amino)cyclohexyl)-1-(5-(1-methyl-1H-pyrazol-4-yl)pyridin-2-yl)urea]
inhibition at 1 µM (A2780 cells): 97%
inhibition at 1 µM (CDK12/CycK enzyme): 103%
inhibition at 1 µM (CDK12/CycK complex): 102%
inhibition at 1 µM [1]: 63%

COc1ncc(-c2ccc(N(C(=O)NCc3ccccc3)[C@H]3CC[C@H](Nc4ncc(C#N)c(OC5COC5)n4)CC3)nc2)cn1 [Example 609, 3-benzyl-1-(trans-4-((5-cyano-4-(oxetan-3-yloxy)pyrimidin-2-yl)amino)cyclohexyl)-1-(5-(2-methoxypyrimidin-5-yl)pyridin-2-yl)urea]
inhibition at 1 µM (A2780 cells): 99%
inhibition at 1 µM (CDK12/CycK enzyme): 107%
inhibition at 1 µM (CDK12/CycK complex): 99%
inhibition at 1 µM [1]: 41%

COc1ncc(-c2ccc(N(C(=O)OCc3ccccc3)[C@H]3CC[C@H](Nc4ncc(C#N)c(NC5COC5)n4)CC3)nc2)cn1 [Example 581, benzyl (trans-4-((5-cyano-4-(oxetan-3-ylamino)pyrimidin-2-yl)amino)cyclohexyl) (5-(2-methoxypyrimidin-5-yl)pyridin-2-yl)carbamate]
inhibition at 1 µM (A2780 cells): 99%
inhibition at 1 µM (CDK12/CycK enzyme): 102%
inhibition at 1 µM (CDK12/CycK complex): 88%
inhibition at 1 µM [1]: 70%

Cn1cc(-c2ccc(N(C(=O)NCc3ccccc3)[C@H]3CC[C@H](Nc4ncc(C#N)c(NC5(C)COC5)n4)CC3)nc2)cn1 [Example 605, 3-benzyl-1-(trans-4-((5-cyano-4-((3-methyloxetan-3-yl)amino)-pyrimidin-2-yl)amino)cyclohexyl)-1-(5-(1-methyl-1H-pyrazol-4-yl)pyridin-2-yl)urea]
inhibition at 1 µM (A2780 cells): 98%
inhibition at 1 µM (CDK12/CycK enzyme): 100%
inhibition at 1 µM (CDK12/CycK complex): 90%
inhibition at 1 µM [1]: 73%

COc1ncc(-c2ccc(N(C(=O)NCc3ccccc3)[C@H]3CC[C@H](Nc4ncc(C(F)(F)F)c(OC5COC5)n4)CC3)nc2)cn1 [Example 588, 3-benzyl-1-(5-(2-methoxypyrimidin-5-yl)pyridin-2-yl)-1-(trans-4-((4-(oxetan-3-yloxy)-5-(trifluoromethyl)pyrimidin-2-yl)amino)cyclohexyl)urea]
inhibition at 1 µM (A2780 cells): 98%
inhibition at 1 µM (CDK12/CycK enzyme): 100%
inhibition at 1 µM (CDK12/CycK complex): 99%
inhibition at 1 µM [1]: 75%

Cn1cc(-c2cnc(N(C(=O)NCc3ccccc3)[C@H]3CC[C@H](Nc4ncc(C#N)c(NC5COC5)n4)CC3)cn2)cn1 [Example 539, 3-benzyl-1-(trans-4-((5-cyano-4-(oxetan-3-ylamino)pyrimidin-2-yl)amino)cyclohexyl)-1-(5-(1-methyl-1H-pyrazol-4-yl)pyrazin-2-yl)urea]
inhibition at 1 µM (A2780 cells): 96%
inhibition at 1 µM (CDK12/CycK enzyme): 109%
inhibition at 1 µM (CDK12/CycK complex): 99%
inhibition at 1 µM [1]: 71%

Cn1ccc(-c2ccc(N(C(=O)NCc3ccccc3)[C@H]3CC[C@H](Nc4ncc(C#N)c(NC5COC5)n4)CC3)cc2)cc1=O [Example 530, 3-benzyl-1-(trans-4-((5-cyano-4-(oxetan-3-ylamino)pyrimidin-2-yl)amino)cyclohexyl)-1-(4-(1-methyl-2-oxo-1,2-dihydropyridin-4-yl)phenyl) urea]
inhibition at 1 µM (A2780 cells): 97%
inhibition at 1 µM (CDK12/CycK enzyme): 104%
inhibition at 1 µM (CDK12/CycK complex): 100%
inhibition at 1 µM [1]: 64%
